In brackets after ≈: the same amount, converted by molar mass.
What was measured:
[1] = test system: Immortal Human ADPKD Cell Line; experiment: TEER of cell monolayers pre- and post-amiloride; type: cell-based; conditions: amiloride treatment
Description: High-titer aliquots (10^9 pfu) of Lenti-SV40T, Lenti-hTERT-Neo and Lenti-CDK4 from Applied Biological Materials (ABM) (Richmond, BC, Canada) and Lenti-CDNK2 (Sigma-Aldrich) were diluted into transfection media to 10^7 pfu for cell challenge. In some cases, Lenti-hTERT and Lenti-CDK4 or Lenti-CDNK2 were combined as a newer immortalization method. huADPKD primary cultures were selected for immortalization based on a compelling genotype, an acceptable cell proliferation rate, and an ability to form cysts in 3D Matrigel culture. Mixed immortalized cultures were established by both methods from primary cultures where the lifetime of the cells were doubled from 5 passages (primary) to 10 passages (mixed immortal). The SV40T method was successful in generating immortal cell cultures that formed electrically tight polarized cell monolayers for transepithelial resistance (TEER) measurements and likely Ussing chamber-based electrophysiological recording of ion transport. These immortal human ADPKD cell monolayers may also be useful in fluid transport assays. Transepithelial/transendothelial electrical resistance (TEER) data for a new immortalized human ADPKD cell line are shown in Table 1 below.

[2] = test system: ADPKD cells; experiment: AVP-stimulated cystogenesis, 384-well high-content imaging; type: cell-based, human; conditions: 14 days culture in the presence of AVP versus absence
Description: Whole well automated high-content imaging was performed of ADPKD primary cells seeded in 384-well plates using the BioTek Cytation 5 system. Multiple well were captured per treatment. Uniform images were fed into deep learning algorithms for analysis. Stimuli like cAMP agonists and growth factors were not required, as the DBM RenalCyte media was sufficient to drive cystogenesis, as shown in FIG. 14.

[3] = test system: ADPKD cell cultures; experiment: Cyst reduction assay, 3D CellTiterGLO cell viability, CRC design; type: cell-based, human
Text: Results are shown in FIG. 26 for a cyst reduction assay.

[4] = test system: ADPKD cell cultures; experiment: Cyst prevention assay, 3D CellTiterGLO cell viability, CRC design; type: cell-based, human
Description: In this assay, the ADPKD cell cultures were incubated on 4 days before 1 week of treatment with drugs, media only or DMSO only.

[5] = test system: primary huADPKD cells; experiment: Cyst prevention cystogenesis bioassay, 3D biogel, 48-well, light microscopy; conditions: for overt cell cytotoxicity: concentrations tested; for effect on cyst appearance and expansion: midway point and end of assay, various concentrations
Description: Primary cells capable of 3D cystogenesis were seeded into a 3D biogel that is liquified before the gel sets. The gel set undisturbed within a humidified 5% CO2 incubator for 18 hours. An equal volume of DBM RenalCyte media was then overlaid in each well of a 48-well plate. “Add” feeds were performed until the well was full, and then half of the volume of media was removed and new media added at the same volume thereafter. […] In the cyst prevention assay, cysts were challenged as soon as they started to appear (small in dimension and few in number per well) with a test compound. The timing of addition of the test compound, frequency of addition of the test compound and concentration of the test compound varied. The effects on the cysts were followed by light-based microscopic imaging over time. In addition to visual inspection by light-based microscopic imaging occurring throughout the study, the number of cysts were counted per well at the end of the study and light-based endpoints were examined, such as 3D CellTiter-GLO® from Promega (Madison, Wis.) (to quantify viable cells), secretion (to quantify cell membrane integrity), and/or Caspase-GLO® (Promega) (to measure induction of apoptosis) in multiplex fashion. A modified version of this assay images after seeding the biogel each day for complete prevention of cyst formation versus counterpart controls over a 14 to 21-day period. Multiple replicates were performed, and cells from multiple donors were tested.

[6] = test system: primary huADPKD cells; experiment: Cyst attack cystogenesis bioassay, cyst image tracking; type: cell-based, human; conditions: 3 μM
Description: Primary cells capable of 3D cystogenesis were seeded as described above for the cyst prevention cytogenesis bioassay. In the cyst attack assay, cysts were allowed to develop to 12-24 in number and allowed to expand to a significant size. Specific cysts or cyst clusters were marked in each well. A test compound was then added to attack the already formed cysts to determine effects on the cysts. […] The timing of addition of the compound, frequency of addition of the compound and concentration of the compound varied.
A prominent cyst was imaged before treatment and daily for 6 days after treatment began. This larger cyst increased by 2.5 to 3.0 fold in the presence of the industry standard drug, tolvaptan, a vasopressin receptor antagonist.

[7] = Solubility limit noted in the cyst prevention assay; type: physicochemical
[8] = test system: primary huADPKD cells; experiment: 384-well cyst prevention assay, percent viability versus DMSO control; type: cell-based, human
Description: (§1) A BioTek Cytation 5 (Biotek instruments, Winooski, Vt.) high content imaging and light-based high-throughput screening imaging system was used to image the huADPKD cells growing in 3D Biogels in 96-well and 384-well microliter plates. The Cytation 5 is coupled to a BioTek BioSpa 8 (a humidified CO2 incubator), such that trays can be extracted one at a time for analysis in the reader and then returned to the BioSpa.
While no drivers are required, they can be used if desired. Edge wells are filled with saline to mitigate edge effects
Whole well automated high-content imaging was performed of ADPKD primary cells seeded in 384-well plates using the BioTek Cytation 5 system. Multiple well were captured per treatment. Uniform images were fed into deep learning algorithms for analysis.
(§2) Concentrations of 30-1000 nM were tested for each, and data were expressed as percent viability versus DMSO control (n=12). […] Statistical analysis was performed using ANOVA.

[9] = test system: primary human ADPKD cultures; experiment: 384-well cyst attack assay, 3D CellTiterGLO cell viability; type: cell-based
Description: as §1, §2

[10] = from complete loss of viability signal
[11] = incubated 10 days before 1 week of treatment
[12] = incubated 4 days before 1 week of treatment

## N=C(N)NC(=O)c1nc(Cl)c(N)nc1N [Amiloride, amiloride]
[1]
  change of transepithelial resistance, in words: increase in resistance

## NC(=O)CC[C@@H]1NC(=O)[C@H](Cc2ccccc2)NC(=O)[C@H](Cc2ccc(O)cc2)NC(=O)[C@@H](N)CSSC[C@@H](C(=O)N2CCC[C@H]2C(=O)N[C@@H](CCCN=C(N)N)C(=O)NCC(N)=O)NC(=O)[C@H](CC(N)=O)NC1=O [Arginine Vasopressin (AVP), Arginine Vasopressin]
[2]
  cyst size: more larger on average

## CC(C)(CO)c1cc2cc(NC(=O)C3(c4ccc5c(c4)OC(F)(F)O5)CC3)c(F)cc2n1C[C@@H](O)CO [VX-661]
[3]; Homo sapiens, incubated 10 days before 1 week of treatment
  IC50: 30 µM
[3]; [10]
  cytotoxicity: overt cytotoxicity
[3]; [11]
  extent of inhibition, in words: complete inhibition to no signal
[4]; Homo sapiens, incubated 4 days before 1 week of treatment
  IC50: 10 µM
[4]; [10]
  cytotoxicity: overt cytotoxicity
[4]; [12]
  extent of inhibition, in words: complete inhibition to no signal

## Cc1ccc(NC(=O)C2(c3ccc4c(c3)OC(F)(F)O4)CC2)nc1-c1cccc(C(=O)O)c1 [VX-809]
[3]; [11]
  extent of inhibition, in words: only a partial effect and only at the highest concentrations
[4]; [12]
  extent of inhibition, in words: only a partial effect and only at the highest concentration

## COc1cc(Nc2c(C#N)cnc3cc(OCCCN4CCN(C)CC4)c(OC)cc23)c(Cl)cc1Cl [bosutinib]
[5]
  overt cell cytotoxicity: no overt cell cytotoxicity
  effect on cyst appearance and expansion: no effect
[6]; in 1-2 days
  increase in size of a small cyst: 2 fold

## CO[C@H]1C[C@@H]2CC[C@@H](C)[C@@](O)(O2)C(=O)C(=O)N2CCCC[C@H]2C(=O)O[C@H]([C@H](C)C[C@@H]2CC[C@@H](O)[C@H](OC)C2)CC(=O)[C@H](C)/C=C(\C)[C@@H](O)[C@@H](OC)C(=O)[C@H](C)C[C@H](C)/C=C/C=C/C=C/1C [rapamycin]
[7]
  solubility: ~30 µM (≈ 27.4 µg/mL)
[6]
  overt toxicity: not overtly toxic

## Cc1ccccc1C(=O)Nc1ccc(C(=O)N2CCCC(O)c3cc(Cl)ccc32)c(C)c1 (stereo not shown) [tolvaptan]
[5]; 10 and 30 micromolar
  cyst expansion: may have slowed cyst expansion
[5]
  overt cell cytotoxicity: no overt cell cytotoxicity
  effect on cyst appearance and expansion: little effect
[8]; Homo sapiens, cyst prevention assays in 384-well plates, FIG. 24
  IC50: > 10 µM
[8]; cAMP stimulated
  efficacy in cAMP stimulated assays: only slightly more effective
[8]; cyst prevention assays, FIG. 23
  concentrations at which effective: only at mid-micromolar concentrations
[8]; prevention assay, 30-1000 nM
  efficacy, percent viability versus DMSO control: ineffective
[7]
  solubility: ~30 µM (≈ 13.5 µg/mL)
[9]; Homo sapiens, 10-fold higher concentration (10 μM), 2 weeks incubation, then 1-week treatment
  inhibition at 10 µM: ~20%
[9]; attack assay, 30-1000 nM
  efficacy, percent viability versus DMSO control: ineffective
[3]; [11]
  extent of inhibition, in words: only a partial effect and only at the highest concentrations
[6]; 6 days
  size of the smaller cyst: quickly reduced in size
[6]; week-long treatment
  size of the large cyst: doubled in size but then decreased in size to a slightly reduced size

From US20220235328A1, “HUMAN DISEASED AND NORMAL KIDNEY EPITHELIAL CELL CULTURES AND USES THEREOF” (DISCOVERYBIOMED, INC., priority 2019, published 2022)
